The target in test [1] is T1, Thyroid hormone receptor alpha (Homo sapiens, UniProt P10827).
T1 sequence (P10827 whole entry): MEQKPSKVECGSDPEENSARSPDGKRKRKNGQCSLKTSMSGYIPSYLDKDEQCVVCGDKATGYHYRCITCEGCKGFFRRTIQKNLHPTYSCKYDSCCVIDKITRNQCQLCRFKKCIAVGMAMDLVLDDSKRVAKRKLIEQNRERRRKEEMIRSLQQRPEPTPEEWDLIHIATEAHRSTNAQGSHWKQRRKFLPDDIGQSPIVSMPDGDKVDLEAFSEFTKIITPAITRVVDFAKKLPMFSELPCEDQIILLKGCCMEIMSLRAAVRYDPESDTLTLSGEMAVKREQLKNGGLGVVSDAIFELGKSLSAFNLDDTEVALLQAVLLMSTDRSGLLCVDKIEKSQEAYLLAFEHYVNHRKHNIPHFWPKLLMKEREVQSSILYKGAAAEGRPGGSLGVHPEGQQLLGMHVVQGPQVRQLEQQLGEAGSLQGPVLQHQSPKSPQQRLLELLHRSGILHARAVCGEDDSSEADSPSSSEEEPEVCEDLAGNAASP
The test can be described thus: TR Receptor Ligand Binding Assay. The text has this: (§1) Human thyroid hormone receptor alpha and beta (hTR alpha1) and (hTR beta1) were produced using TNT coupled reticulocyte lysate system from Promega.

The target in test [2] is T2, Thyroid hormone receptor beta (Homo sapiens, UniProt P10828).
T2 sequence (P10828 whole entry): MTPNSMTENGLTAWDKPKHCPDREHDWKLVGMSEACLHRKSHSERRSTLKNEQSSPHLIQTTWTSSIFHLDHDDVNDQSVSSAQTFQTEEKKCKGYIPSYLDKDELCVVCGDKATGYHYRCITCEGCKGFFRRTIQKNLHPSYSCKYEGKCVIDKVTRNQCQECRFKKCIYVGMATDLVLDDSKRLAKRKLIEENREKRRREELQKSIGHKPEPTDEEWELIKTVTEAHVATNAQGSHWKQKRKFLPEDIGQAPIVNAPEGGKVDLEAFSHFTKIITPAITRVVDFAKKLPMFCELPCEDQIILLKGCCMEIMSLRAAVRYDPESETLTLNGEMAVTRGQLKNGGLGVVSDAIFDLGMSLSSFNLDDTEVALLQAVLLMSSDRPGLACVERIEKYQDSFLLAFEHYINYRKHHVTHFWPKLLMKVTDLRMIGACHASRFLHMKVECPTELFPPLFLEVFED
The test can be described thus: TR Receptor Ligand Binding Assay.
Description: as §1

These results are taken from BindingDB's records for doi:10.1016/s1074-5521(98)90168-5 (University of California San Francisco, 1998).

One may read the Kd as the free concentration of one partner at which half of the binding sites on the other are occupied at equilibrium, for simple one-to-one binding.

As for `Cc1cc(C[C@H](N)C(=O)O)cc(C)c1Oc1ccc(O)c(C(C)C)c1` [Dimethyl-isopropyl-T3 (DIMIT)], the Kd came out at 9.7 nM in test [1] and 9.8 nM in test [2].
